Test results as given in patent US10913733B2, “Substituted piperidines thiazolyl acetamides as glycosidase inhibitors and uses thereof” (priority 2015, dated 2021).
“And” between values parts separate entries of the source, which are not always exact repeats. Identical values can stand only once.

What follows are compounds tested against human O-GlcNAcase (Homo sapiens (Human), UniProt O60502) (assay: Assay for determination of KI values for inhibition of O-GlcNAcase activity). Settings: purified human O-GlcNAcase 0.7 nM; substrate 2 mM 4-Methylumbelliferyl N-acetyl-β-D-glucosaminide; pH 7.0; room temperature; Cheng-Prusoff; read-out: hOGA Ki.
Format: biochemical
Method: Assay for Determination of KI Values for Inhibition of O-GlcNAcase Activity
Experimental procedure for kinetic analyses: Enzymatic reactions were carried out in a reaction containing 50 mM NaH2PO4, 100 mM NaCl and 0.1% BSA (pH 7.0) using 2 mM 4-Methylumbelliferyl N-acetyl-β-D-glucosaminide dihydrate (Sigma M2133) dissolved in ddH2O, as a substrate. The amount of purified human O-GlcNAcase enzyme used in the reaction was 0.7 nM. Test compound of varying concentrations was added to the enzyme prior to initiation of the reaction. The reaction was performed at room temperature in a 96-well plate and was initiated with the addition of substrate. The production of fluorescent product was measured every 60 sec for 45 min with a Tecan Infinite M200 plate-reader with excitation at 355 nm and emission detected at […], with 4-Methylumbelliferone (Sigma M1381) used to produce a standard curve. The slope of product production was determined for each concentration of compound tested and plotted, using standard curve fitting algorithms for sigmoidal dose response curves. The values for a four parameter logistic curve fit of the data were determined. KI values were determined using the Cheng-Prusoff equation; the Km of O-GlcNAcase for substrate was 0.2 mM.

human O-GlcNAcase, sequence (O60502 whole entry): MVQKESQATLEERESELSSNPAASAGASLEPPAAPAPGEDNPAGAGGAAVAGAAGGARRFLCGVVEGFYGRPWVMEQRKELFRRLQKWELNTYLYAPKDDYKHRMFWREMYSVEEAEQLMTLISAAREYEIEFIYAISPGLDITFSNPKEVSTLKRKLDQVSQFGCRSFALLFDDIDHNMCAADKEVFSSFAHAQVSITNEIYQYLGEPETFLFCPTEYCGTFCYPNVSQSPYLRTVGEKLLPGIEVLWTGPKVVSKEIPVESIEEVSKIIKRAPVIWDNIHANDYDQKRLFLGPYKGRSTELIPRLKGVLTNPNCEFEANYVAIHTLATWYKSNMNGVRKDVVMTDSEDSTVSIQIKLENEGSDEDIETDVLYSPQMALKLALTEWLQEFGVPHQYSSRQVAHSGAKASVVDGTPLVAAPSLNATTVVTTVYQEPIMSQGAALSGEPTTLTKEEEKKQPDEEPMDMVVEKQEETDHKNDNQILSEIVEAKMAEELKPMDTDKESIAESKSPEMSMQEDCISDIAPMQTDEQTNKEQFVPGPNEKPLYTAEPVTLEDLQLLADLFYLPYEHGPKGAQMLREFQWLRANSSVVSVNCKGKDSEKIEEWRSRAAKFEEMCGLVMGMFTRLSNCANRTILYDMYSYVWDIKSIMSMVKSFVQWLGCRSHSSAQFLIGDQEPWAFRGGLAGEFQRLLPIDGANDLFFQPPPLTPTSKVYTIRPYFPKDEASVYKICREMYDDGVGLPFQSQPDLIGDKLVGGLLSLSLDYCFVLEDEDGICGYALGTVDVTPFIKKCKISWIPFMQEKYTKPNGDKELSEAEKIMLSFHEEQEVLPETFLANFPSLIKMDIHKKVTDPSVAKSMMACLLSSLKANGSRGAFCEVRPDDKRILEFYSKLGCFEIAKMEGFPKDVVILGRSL

Point of comparison: `CNC(=O)c1ccc(C=C2CCN(Cc3cnc(NC(C)=O)s3)CC2)cc1` [Example 30, 4-[(1-{[2-(acetylamino)-1,3-thiazol-5-yl]methyl}piperidin-4-ylidene)methyl]-N-methylbenzamide], Ki 0.43 nM. Against it:
- COc1ccc(C=C2CCN(Cc3cnc(NC(C)=O)s3)CC2)cc1OC [Example 1, N-(5-((4-(3,4-dimethoxybenzylidene)piperidin-1-yl)methyl)thiazol-2-yl)acetamide] — within 1.5-fold, 0.392 nM
- CC(=O)Nc1ncc(CN2CCC(=Cc3ccc(F)nc3)CC2)s1 [Example 2, N-(5-((4-((6-fluoropyridin-3-yl)methylene)piperidin-1-yl)methyl)thiazol-2-yl)acetamide] — 4.8-fold higher, 2.08 nM
- CC(=O)Nc1ncc(CN2CCC(=Cc3ccc(O)nc3)CC2)s1 [Example 3, N-(5-((4-((6-hydroxypyridin-3-yl)methylene)piperidin-1-yl)methyl)thiazol-2-yl)acetamide] — 2.5-fold higher, 1.09 nM
- CC(=O)Nc1ncc(CN2CCC(=Cc3ccc(OC(=O)OC(C)(C)C)cc3)CC2)s1 [Example 5, 4-((1-((2-acetamidothiazol-5-yl)methyl)piperidin-4-ylidene)methyl)phenyl tert-butyl carbonate] — 8.2-fold higher, 3.53 nM
- CC(=O)Nc1ncc(CN2CCC(=Cc3ccc(N)nc3)CC2)s1 [Example 6, N-[5-({4-[(6-aminopyridin-3-yl)methylidene]piperidin-1-yl}methyl)-1,3-thiazol-2-yl]acetamide] — within 1.5-fold, 0.635 nM
- CC(=O)Nc1ncc(CN2CCC(=Cc3cccc(CO)c3)CC2)s1 [Example 7, N-(5-((4-(3-(hydroxymethyl)benzylidene)piperidin-1-yl)methyl)thiazol-2-yl)acetamide] — 1.6-fold higher, 0.69 nM
- CC(=O)Nc1ncc(CN2CCC(=Cc3cn[nH]c3)CC2)s1 [Example 8, N-(5-((4-((1H-pyrazol-4-yl)methylene)piperidin-1-yl)methyl)thiazol-2-yl)acetamide] — within 1.5-fold, 0.387 nM
- CC(=O)Nc1ncc(CN2CCC(=Cc3ccc(C(N)=O)cc3)CC2)s1 [Example 9, 4-((1-((2-acetamidothiazol-5-yl)methyl)-piperidin-4-ylidene)methyl)benzamide] — within 1.5-fold, 0.294 nM
- CC(=O)Nc1ncc(CN2CCC(=Cc3cccc(CC(N)=O)c3)CC2)s1 [Example 10, 2-(3-((1-((2-acetamidothiazol-5-yl)methyl)-piperidin-4-ylidene)methyl)phenyl) acetamide] — within 1.5-fold, 0.614 nM
- CC(=O)Nc1ncc(CN2CCC(=Cc3ccc(OC(F)(F)F)cc3)CC2)s1 [Example 11, N-(5-((4-(4-(trifluoromethoxy)benzylidene)-piperidin-1-yl)methyl)thiazol-2-yl)acetamide] — 7.3-fold higher, 3.15 nM
- CCc1ccc(C=C2CCN(Cc3cnc(NC(C)=O)s3)CC2)cc1 [Example 12, N-(5-((4-(4-ethylbenzylidene)piperidin-1-yl)methyl)thiazol-2-yl)acetamide] — 1.6-fold higher, 0.703 nM
- CC(=O)Nc1ncc(CN2CCC(=Cc3ccc(C)cc3)CC2)s1 [Example 13, N-(5-((4-(4-methylbenzylidene)piperidin-1-yl)methyl)thiazol-2-yl)acetamide] — 1.7-fold higher, 0.741 nM
- CCOc1ccc(C=C2CCN(Cc3cnc(NC(C)=O)s3)CC2)cc1 [Example 14, N-(5-((4-(4-ethoxybenzylidene)piperidin-1-yl)methyl)thiazol-2-yl)acetamide] — 3.4-fold higher, 1.45 nM
- CC(=O)Nc1ncc(CN2CCC(=Cc3cncnc3)CC2)s1 [Example 15, N-(5-((4-(pyrimidin-5-ylmethylene)piperidin-1-yl)methyl)thiazol-2-yl)acetamide] — 7.8-fold higher, 3.37 nM
- COc1cccc(C=C2CCN(Cc3cnc(NC(C)=O)s3)CC2)c1OC [Example 16, N-[5-({4-[(2,3-dimethoxyphenyl)methylidene]piperidin-1-yl}methyl)-1,3-thiazol-2-yl]acetamide] — 7.9-fold higher, 3.4 nM
- CC(=O)Nc1ncc(CN2CCC(=Cc3ccc(S(=O)(=O)N(C)C)cc3)CC2)s1 [Example 17, N-(5-((4-(4-(N,N-dimethylsulfamoyl)benzylidene)piperidin-1-yl)methyl)thiazol-2-yl)acetamide] — 4.5-fold lower, 0.0954 nM
- CC(=O)Nc1ncc(CN2CCC(=Cc3ccc4[nH]ccc4c3)CC2)s1 [Example 18, N-(5-{[4-(1H-indol-5-ylmethylidene)piperidin-1-yl]methyl}-1,3-thiazol-2-yl)acetamide] — within 1.5-fold, 0.427 nM
- CC(=O)Nc1ncc(CN2CCC(=Cc3ccc4c(c3)OCO4)CC2)s1 [Example 19, N-(5-{[4-(1,3-benzodioxol-5-ylmethylidene)piperidin-1-yl]methyl}-1,3-thiazol-2-yl)acetamide] — 2.4-fold higher, 1.03 nM
- CC(=O)Nc1ncc(CN2CCC(=Cc3ccc4c(c3)OCCO4)CC2)s1 [Example 20, N-(5-{[4-(2,3-dihydro-1,4-benzodioxin-6-ylmethylidene)piperidin-1-yl]methyl}-1,3-thiazol-2-yl)acetamide] — 4.2-fold higher, 1.79 nM
- CC(=O)Nc1ncc(CN2CCC(=Cc3ccc4c(c3)CNC4=O)CC2)s1 [Example 21, N-(5-((4-((1-oxoisoindolin-5-yl)methylene)piperidin-1-yl)methyl)thiazol-2-yl)acetamide] — 1.6-fold lower, 0.268 nM
- COc1cc(C=C2CCN(Cc3cnc(NC(C)=O)s3)CC2)ccc1O [Example 22, N-[5-({4-[(4-hydroxy-3-methoxyphenyl)methylidene]piperidin-1-yl}methyl)-1,3-thiazol-2-yl]acetamide] — within 1.5-fold, 0.634 nM
- COc1ccc(C=C2CCN(Cc3cnc(NC(C)=O)s3)CC2)cc1O [Example 23, N-[5-({4-[(3-hydroxy-4-methoxyphenyl)methylidene]piperidin-1-yl}methyl)-1,3-thiazol-2-yl]acetamide] — 3.5-fold higher, 1.51 nM
- COC(=O)c1ccc(C=C2CCN(Cc3cnc(NC(C)=O)s3)CC2)cc1 [Example 24, methyl 4-((1-((2-acetamidothiazol-5-yl)methyl)piperidin-4-ylidene)methyl)benzoate] — 3.2-fold higher, 1.37 nM
- CC(=O)Nc1ncc(CN2CCC(=Cc3ccc(CCF)cc3)CC2)s1 [Example 27, N-(5-((4-(4-(2-fluoroethyl)-benzylidene)piperidin-1-yl)methyl)thiazol-2-yl)acetamide] — within 1.5-fold, 0.411 nM
- CC(=O)N(C)c1ncc(CN2CCC(=Cc3ccc(CCF)cc3)CC2)s1 [Example 28, N-(5-((4-(4-(2-fluoroethyl)benzylidene)-piperidin-1-yl)methyl)thiazol-2-yl)-N-methylacetamide] — 13-fold higher, 5.71 nM
- CC(=O)Nc1ncc(CN2CCC(=Cc3ccc(C(=O)O)cc3)CC2)s1 [Example 29, 4-[(1-{[2-(acetylamino)-1,3-thiazol-5-yl]methyl}piperidin-4-ylidene)methyl]benzoic acid] — within 1.5-fold, 0.324 nM
- CC(=O)Nc1ncc(CN2CCC(=Cc3ccc(C(=O)N(C)C)cc3)CC2)s1 [Example 31, 4-((1-((2-acetamidothiazol-5-yl)methyl)piperidin-4-ylidene)methyl)-N,N-dimethylbenzamide] — 3.7-fold lower, 0.117 nM
- CC(=O)Nc1ncc(CN2CCC(=Cc3ccc(F)cc3)CC2)s1 [Example 32, N-[5-({4-[(4-fluorophenyl)methylidene]piperidin-1-yl}methyl)-1,3-thiazol-2-yl]acetamide] — 6.3-fold higher, 2.7 nM
- CC(=O)Nc1ncc(CN2CCC(=Cc3ccccc3)CC2)s1 [Example 33, N-(5-{[4-(phenyl-methylidene)piperidin-1-yl]methyl}-1,3-thiazol-2-yl)acetamide] — 4.1-fold higher, 1.75 nM
- CC(=O)Nc1ncc(CN2CC/C(=C/c3ccccc3)C[C@@H]2C)s1 [Example 34, (S,Z)-N-(5-{(4-benzylidene-2-methylpiperidin-1-yl)methyl)thiazol-2-yl)acetamide] — 2.4-fold higher, 1.04 nM
- CC(=O)Nc1ncc(CN2CC/C(=C/c3ccccc3)C[C@H]2C)s1 [Example 35, (R,Z)-N-(5-((4-benzylidene-2-methylpiperidin-1-yl)methyl)thiazol-2-yl)acetamide] — 130-fold higher, 56.6 nM
- CC(=O)Nc1ncc(CN2CC/C(=C\c3ccccc3)C[C@H]2C)s1 [Example 36, (R,E)-N-(5-((4-benzylidene-2-methylpiperidin-1-yl)methyl)thiazol-2-yl)acetamide] — 960-fold higher, 412 nM
- CC(=O)Nc1ncc(CN2CC/C(=C\c3ccccc3)C[C@@H]2C)s1 [Example 37, (S,E)-N-(5-((4-benzylidene-2-methylpiperidin-1-yl)methyl)thiazol-2-yl)acetamide] — 69-fold higher, 29.8 nM
- COc1ccc(/C=C2/CCN(Cc3cnc(NC(C)=O)s3)[C@@H](C)C2)cc1 [Example 38, (S,Z)-N-(5-((4-(4-methoxybenzylidene)-2-methylpiperidin-1-yl)methyl)thiazol-2-yl)acetamide] — within 1.5-fold, 0.287 nM
- COc1ccc(/C=C2\CCN(Cc3cnc(NC(C)=O)s3)[C@H](C)C2)cc1 [Example 39, (R,E)-N-(5-((4-(4-methoxybenzylidene)-2-methylpiperidin-1-yl)methyl)thiazol-2-yl)acetamide] — 290-fold higher, 126 nM
- COc1ccc(/C=C2/CCN(Cc3cnc(NC(C)=O)s3)[C@H](C)C2)cc1 [Example 40, (R,Z)-N-(5-((4-(4-methoxybenzylidene)-2-methylpiperidin-1-yl)methyl)thiazol-2-yl)acetamide] — 170-fold higher, 71.2 nM

In the case of `CC(=O)Nc1ncc(CN2CCC(=Cc3ccc(CF)cc3)CC2)s1` [Example 26, N-(5-((4-(4-(fluoromethyl)benzylidene)piperidin-1-yl)methyl)thiazol-2-yl)acetamide], the Ki is reported as 0.167 nM and 0.0753 nM.
